Reference: patent publication US20230355708A1 (priority 2020, published 2023)
*1 amine or outer side, *2 acyl side, *3 side chain or, on linkers, in order; H or OH if unused. Where a SMILES comes first, the peptide text is derived from it. Bridges are numbered along the chain shown (N, C = ends). [ ]: non-standard residue; d: D form. X1 = Cc1ccc(-c2ccc(-c3cn([C@H]4C[C@@H](C(=O)[*:2])N([*:1])C4)nn3)cc2)s1

Columns and labels:
SARS-CoV-1 pseudoviruses [1] = type: cell-based
[2] = molecular target: SARS-CoV-2 spike S2 subunit (Severe acute respiratory syndrome coronavirus 2, UniProt P0DTC2)
SARS-CoV-2 pseudoviruses [3] = type: cell-based
SARS-CoV-2 pseudoviruses [4] = type: cell-based; remark: listed apart in the source
SARS-CoV-1 pseudoviruses [5] = type: cell-based; remark: listed apart in the source
SARS-CoV-1 pseudoviruses [6] = system: SARS-CoV-1 pseudoviruses
SARS-CoV-2 pseudoviruses [7] = system: SARS-CoV-2 pseudoviruses
clade_AE envelope = type: binding, HIV-1
HIV-1 = type: in vivo; details: animal model
HIVBal.01 = details: read-out: HIVBal.01 IC50
HIVJRFL = details: read-out: HIVJRFL IC50
Fully-infected HIVNL4.3 = details: read-out: Fully-infected HIVNL4.3 IC50

Compound	irreversible inactivation of SARS-CoV-1 (SARS-CoV-1 pseudoviruses [1])	stoichiometry of binding, S2 versus S1 [2]	inhibition of SARS-CoV-2 pseudovirus infection (SARS-CoV-2 pseudoviruses [3])	irreversible inactivation of SARS-CoV-2 (SARS-CoV-2 pseudoviruses [4])	inhibition of SARS-CoV-1 pseudovirus infection (SARS-CoV-1 pseudoviruses [5])	virolysis of SARS-CoV-1 pseudoviruses (SARS-CoV-1 pseudoviruses [6])	virolysis of SARS-CoV-2 pseudoviruses (SARS-CoV-2 pseudoviruses [7])	binding to clade_AE envelope (clade_AE envelope)	HIV-1 viral load normalized to Hu CD4+ T cell counts (HIV-1)	IC50 (HIVBal.01) [µM]	IC50 (HIVJRFL) [µM]	IC50 (Fully-infected HIVNL4.3) [µM]
GRFT: lectin Griffithsin, SEQ ID NO:2	partial irreversible inactivation	higher for the S2 subunit as compared to the S1 subunit	reduced inhibition of infection	partial irreversible inactivation	reduced inhibition of infection	does not causes significant virolysis	does not causes significant virolysis	–	–	–	–	–
CC[C@H](C)[C@@H]1NC(=O)[C@H](CC(N)=O)NC(=O)[C@@H](N)CC(=O)NCCCC[C@@H](C(N)=O)NC(=O)[C@H](Cc2c[nH]c3ccccc23)NC(=O)[C@@H]2C[C@H](n3cc(-c4ccc(-c5ccc(C)s5)cc4)nn3)CN2C1=O [AAR029N2, (3S,6S,14S,17S,20S,24S,25aS)-3-((1H-indol-3-yl)methyl)-14-amino-17-(2-amino-2-oxoethyl)-20-((S)-sec-butyl)-24-(4-(4-(5-methylthiophen-2-yl)phenyl)-1H-1,2,3-triazol-1-yl)-1,4,12,15,18,21-hexaoxotetracosahydro-1H-pyrrolo[2,1-f][1,4,7,10,13,18]hexaazacyclotricosine-6-carboxamide] (H-DNI[X1]WK-NH2; lactam 1-6)	–	–	–	–	–	–	–	binds clade_AE envelope	significant efficacy in an animal model	~0.1	~0.112	~0.18
